# Assay results reported in patent EP2108954A1, “A test system for detecting intracellular cyclic nucleotide level and methods and uses thereof” (Max-Planck-Gesellschaft zur Förderung der Wissenschaften …, priority 2008, dated 2009).
# Molecular target: T1, Or22a and Or83b (Drosophila melanogaster, UniProt P81909+Q9VNB5)
# T1 construct: expressed in transfected cells; host or cells: HEK293
# T1 sequence (P81909 1-397): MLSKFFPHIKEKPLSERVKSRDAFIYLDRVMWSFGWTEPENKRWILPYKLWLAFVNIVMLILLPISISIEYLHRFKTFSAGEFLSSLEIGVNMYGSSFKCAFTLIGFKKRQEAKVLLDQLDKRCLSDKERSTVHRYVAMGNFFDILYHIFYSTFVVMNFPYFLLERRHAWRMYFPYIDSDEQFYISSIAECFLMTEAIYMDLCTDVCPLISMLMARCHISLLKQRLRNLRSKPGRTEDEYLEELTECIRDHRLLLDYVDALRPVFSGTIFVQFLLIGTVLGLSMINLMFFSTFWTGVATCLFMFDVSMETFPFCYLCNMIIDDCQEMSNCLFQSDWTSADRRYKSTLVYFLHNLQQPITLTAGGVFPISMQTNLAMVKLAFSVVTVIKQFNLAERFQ
# T1 sequence (Q9VNB5 1-486): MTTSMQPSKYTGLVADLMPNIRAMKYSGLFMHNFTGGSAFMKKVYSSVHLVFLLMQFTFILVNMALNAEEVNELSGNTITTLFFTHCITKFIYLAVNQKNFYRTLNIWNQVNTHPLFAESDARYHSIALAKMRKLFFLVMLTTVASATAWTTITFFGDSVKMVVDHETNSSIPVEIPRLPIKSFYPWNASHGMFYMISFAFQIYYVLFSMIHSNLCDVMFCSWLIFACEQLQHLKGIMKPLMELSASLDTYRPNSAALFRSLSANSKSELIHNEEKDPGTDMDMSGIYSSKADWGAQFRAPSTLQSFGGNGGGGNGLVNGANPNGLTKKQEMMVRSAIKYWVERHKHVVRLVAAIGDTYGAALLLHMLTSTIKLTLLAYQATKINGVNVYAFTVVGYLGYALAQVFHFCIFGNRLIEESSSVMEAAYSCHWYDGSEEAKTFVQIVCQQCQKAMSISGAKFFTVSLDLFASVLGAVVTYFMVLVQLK
# Experiment: Outside-out patch recording from HEK293 cells coexpressing Or22a and Or83b
# Type: cell-based
# Conditions: Etb 100 nM, 1 s, -60 mV; for Ii Peak size / Ii Peak time / Ii Recov. / Im Latency / Im Peak size / Im Peak time / Im Recov.: Or22a C-terminal GFP fusion protein
# Protocol: HEK293 cells were cultured as described by Wicher and colleagues (Wicher et al., J. Biol. Chem. 281, 3227-36 (2006)). In brief, HEK293 cells were cultured at a density of ∼2*10^4 per 35-mm dish and transfected with 1 µg pcDNA3-DOR22a-GFP and 1 µg pcDNA3-DOR83b-GFP (Neuhaus, et al., Nat. Neurosci. 8, 15-17 (2005); DNAs were a generous gift of Dr. E. Neuhaus and Dr. H. Hatt) using Roti-Fect transfection kit (Roth, Karlsruhe, Germany). In some experiments we transfected cells with pcDNA3-DOR22a-GFP or pcDNA3-DOR83b-GFP alone. We also examined the properties of DOR47a, which was cloned, using standard molecular biology methods into a pcDNA3.1(-) expression vector. To test for putative G-protein coupling, cells were transfected with the respective OR-DNA together with 1.5 µg hHCN2/pcDNA3 (provided by M. Biel, Munich, Germany), with 1 µg hKCNQ4/pcDNA3.1 or with 1 µg hCNGA2/pCMV6-XL4 (Origene, Rockville, MD, USA).
# Ion currents in HEK293 cells were measured with the patch-clamp technology as described (Wicher et al, J. Biol. Chem. 281, 3227-36 (2006)). In brief, ion currents in HEK293 cells were measured at room temperature using whole-cell patch-clamp with appropriate compensation of series resistance and of capacitive currents. Additional experiments were performed in the outside-out configuration. Current measurements and data acquisition were performed using an EPC9 patch-clamp amplifier controlled by PatchMaster software (both HEKA Elektronik, Lambrecht, Germany). Patch-clamp pipettes were fabricated from borosilicate capillaries. Pipettes for whole-cell recordings had resistances of 2-4 MΩ for excised-patch recordings the pipette resistance was up to 15 MΩ.
# The standard pipette solution contained (in mM) 140 KCl, 4 NaCl, 2.2 CaCl2, 2 Mg-ATP, 0.05 Na-GTP, 5 EGTA, 10 HEPES (pH 7.3), and the standard bath solution contained (in mM) 135 NaCl, 5 KCI, 1 CaCl2, 1 MgCl2, 10 HEPES, 10 glucose (pH 7.4). To differentiate between ionotropic and metabotropic pathways of receptor activation (Fig. 2a-d) the pipette solution contained either 2 mM ATP plus 2 mM GTP or 2 mM ADP plus 2 mM GDP (both for whole-cell and outside-out configuration). For the preparation of Cl^--free solutions the chloride salts were substituted by gluconate salts. The pipette Cs^+ solution contained (in mM) 140 CsCl, 1 Mg-ATP, 10 EGTA, 10 HEPES (pH = 7.3), and the Cs^+ bath solution contained (in mM) 140 CsCl, 15 glucose, 15 HEPES (pH = 7.4). The Ca^2+-free bath solution contained (in mM) 140 NaCl, 15 glucose, 15 HEPES, and the Na^+-free bath solution contained (in mM) 140 NMDG-Cl, 10 CaCl2, 10 glucose, 15 HEPES.
# With the exception of GDP-γ-S, which was applied via the patch pipette, all substances were applied to the bath using either a bath perfusion system (BPS4 from ALA, New York, USA) or a rapid solution changer (RSC160 from Biologic, Claix, France) which were controlled by the PatchMaster software (HEKA Elektronik).
structure (smiles),measurement,setting,value
"CCCC(=O)OCC [Etb, ethyl butyrate]",latency of Ii,,< 0.5 s
same,Ii Peak size,ADP and GDP (-),1.6 ± 0.3 pA
same,Ii Peak time,ADP and GDP (-),1.38 ± 0.23 s
same,Ii Recov.,ADP and GDP (-),4.5 ± 1.2 s
same,Im Latency,ADP and GDP (-),11 ± 3 s
same,Im Peak size,ADP and GDP (-),0.5 ± 0.2 pA
same,Im Peak time,ADP and GDP (-),36 ± 8 s
same,Im Recov.,ADP and GDP (-),58 ± 9 s
same,Ii Peak size,ATP and GTP (+),1.3 ± 0.3 pA
same,Ii Peak time,ATP and GTP (+),1.13 ± 0.11 s
same,Ii Recov.,ATP and GTP (+),5.2 ± 1.1 s
same,Im Latency,ATP and GTP (+),10 ± 2 s
same,Im Peak size,ATP and GTP (+),1.7 ± 0.4 pA
same,Im Peak time,ATP and GTP (+),33 ± 4 s
same,Im Recov.,ATP and GTP (+),45 ± 7 s
